Reference: patent US8691861B2, “Prodrugs of inhibitors of plasma kallikrein” (ActiveSite Pharmaceuticals, Inc., priority 2011, dated 2014)
Non-standard residues stand in square brackets, D forms with d. *: point of attachment. CH2Cl = ClC*

Key:
[1] = Conversion of prodrug in vivo: plasma levels of the active plasma kallikrein inhibitor after oral dosing of the prodrug; set-up: species or system Sprague-Dawley rats; conditions: rats, 25 mg/kg oral in PEG400
Procedure: Young male Sprague-Dawley rats were orally dosed at 25 mg/kg with the prodrug 1-(4-fluorophenyl)-N-[[4-(N′-hydroxycarbamimidoyl)phenyl]methyl]-2,5-dimethyl-pyrrole-3-carboxamide dissolved in PEG400. Blood was removed at various time intervals via an arterial catheter into a citrated collection tube, and plasma generated by centrifugation. The concentration of the active plasma kallikrein inhibitor N-[(4-carbamimidoylphenyl)methyl]-1-(4-fluorophenyl)-2,5-dimethyl-pyrrole-3-carboxamide in the plasma samples were determined using LC/MS/MS.

[2] = angiotensin-II-induced; cited from earlier work
[3] = diabetic animals; cited from earlier work
[4] = rat model of ischemic stroke; cited from earlier work
[5] = model of hemorrhagic stroke; cited from earlier work
[6] = rat models of arthritis; cited from earlier work
[7] = cited from earlier work
[8] = LPS or bacterial induced sepsis in animals; cited from earlier work
[9] = mouse model of middle cerebral artery occlusion; cited from earlier work
[10] = cited from earlier work; remark: listed apart in the source

## Cc1cc(C(=O)NCc2ccc(/C(N)=N/O)cc2)c(C)n1-c1ccc(F)cc1 [1-(4-fluorophenyl)-N-[[4-(N′-hydroxycarbamimidoyl)phenyl]methyl]-2,5-dimethyl-pyrrole-3-carboxamide]
[1]
  absorption from the gastrointestinal tract following oral dosing: absorbed from the gastrointestinal tract
  conversion in vivo into the active compound: effectively converted in vivo

## N=C(N)c1ccc(CNC(=O)c2cnn(Cc3ccccc3)c2)cc1 [ASP-440]
[2]
  elevated systolic blood pressure: reduce
[3]
  plasma leakage into the retina: inhibits
[4]
  cerebrovascular edema: reduce
  infarction volume: reduce
[5]
  expansion of intracerebral hemorrhage: reduce

## Cl.NCC1CCC(C(=O)N[C@@H](Cc2ccccc2)C(=O)Nc2ccc(CC(=O)O)cc2)CC1 (stereo partly shown) [PKSI-527]
[6]
  joint swelling: reduce

## NC(N)=NCCC[C@@H](N)C(=O)N[C@@H](CCCN=C(N)N)C(=O)N1CCC[C@H]1C(=O)N1C[C@H](O)C[C@H]1C(=O)NCC(=O)N[C@@H](Cc1cccs1)C(=O)N[C@@H](CO)C(=O)N1Cc2ccccc2C[C@@H]1C(=O)N1[C@H](C(=O)N[C@@H](CCCN=C(N)N)C(=O)O)C[C@@H]2CCCC[C@@H]21 [icatibant]
[7]
  effectiveness in treating HAE: effective

## H-[dP]-Phe-Arg-CH2Cl
[8]
  lesions: reduce

B1: C1-INH: the major endogenous inhibitor of PK (protein, UniProt P05155 23-500, looked up)
Plasma protease C1 inhibitor: NPNATSSSSQDPESLQDRGEGKVATTVISKMLFVEPILEVSSLPTTNSTTNSATKITANTTDEPTTQPTTEPTTQPTIQPTQPTTQLPTDSPTQPTTGSFCPGPVTLCSDLESHSTEAVLGDALVDFSLKLYHAFSAMKKVETNMAFSPFSIASLLTQVLLGAGENTKTNLESILSYPKDFTCVHQALKGFTTKGVTSVSQIFHSPDLAIRDTFVNASRTLYSSSPRVLSNNSDANLELINTWVAKNTNNKISRLLDSLPSDTRLVLLNAIYLSAKWKTTFDPKKTRMEPFHFKNSVIKVPMMNSKKYPVAHFIDQTLKAKVGQLQLSHNLSLVILVPQNLKHRLEDMEQALSPSVFKAIMEKLEMSKFQPTLLTLPRIKVTTSQDMLSIMEKLEFFDFSYDLNLCGLTEDPDLQVSAMQHQTVLELTETGVEAAAASAISVARTLLVFEVQQPFLFVLWDQQHKFPVFMGRVYDPRA
[9]
  infarct size: reduced
[8]
  lesions: reduce
[10]
  clinical outcome in sepsis patients: Clinical improvement
